Measured values reported in US8802678B2, “Carbonylated (aza) cyclohexanes as dopamine D3 receptor ligands” (Bioprojet, priority 2006, dated 2014).

Structure (SMILES)	melting point [°C]
COCC(=O)N[C@H]1CC[C@H](CCN2CCN(c3cccc(C(F)(F)F)c3C)CC2)CC1 [Example 734, 2-Methoxy-N-(4-{2-[4-(2-methyl-3-trifluoromethylphenyl)piperazin-1-yl]ethyl}cyclohexyl)acetamide]	159
Cc1ccccc1C1=CCN(CC[C@H]2CC[C@H](NC(=O)CC#N)CC2)CC1	166
N#CCCCC(=O)NC1CCC(CCN2CCN(c3cccc(-c4ccccc4)c3)CC2)CC1 (stereo not drawn) [Example 462, N-{4-[2-(4-Biphenyl-3-ylpiperazin-1-yl)ethyl]cyclohexyl}-4-cyanobutanamide]	119
CC(=O)CN1CCC(CCN2CCN(c3cccc(OC(F)(F)F)c3)CC2)CC1.Cl.Cl	275
CC(=O)CN1CCC(CCN2CC=C(c3cc(F)cc(C(F)(F)F)c3)CC2)CC1.Cl.Cl	287
CN(C)c1cccc(N2CCN(CC[C@H]3CC[C@H](NC(=O)CC#N)CC3)CC2)c1 [Example 150, 2-Cyano-N-(4-{2-[4-(3-dimethylaminophenyl)piperazin-1-yl]ethyl}cyclohexyl)acetamide]	177
CCOc1ccccc1N1CCN(CC[C@H]2CC[C@H](NC(=O)CCCC#N)CC2)CC1 [Example 439, 4-Cyano-N-(4-{2-[4-(2-ethoxyphenyl)piperazin-1-yl]ethyl}cyclohexyl)butanamide]	137
N#CCC(=O)N[C@H]1CC[C@H](CCN2CCN(c3cccc(-c4ccccc4)c3)CC2)CC1 [Example 276, N-{4-[2-(4-Biphenyl-3-yl-piperazin-1-yl)ethyl]cyclohexyl}-2-cyanoacetamide]	157
Cl.N#CCC(=O)N[C@H]1CC[C@@H](CCN2CCN(c3ccccc3F)CC2)CC1	153
CS(=O)(=O)c1cccc(N2CCN(CC[C@H]3CC[C@H](NC(=O)CC#N)CC3)CC2)c1 [Example 351, 2-Cyano-N-(4-{2-[4-(3-methanesulfonylphenyl)piperazin-1-yl]ethyl}cyclohexyl)acetamide]	195
CCCNC(=O)C[C@H]1CC[C@H](CCN2CCN(c3ccccc3F)CC2)CC1 [Example 306, 2-(4-{2-[4-(2-Fluorophenyl)-piperazin-1-yl]ethyl}cyclohexyl)-N-propylacetamide]	150
N#CCCC(=O)N[C@H]1CC[C@H](CCN2CCN(c3cccc(F)c3)CC2)CC1 [Example 412, 3-Cyano-N-(4-{2-[4-(3-fluorophenyl)piperazin-1-yl]ethyl}cyclohexyl)propanamide]	186
COCCCC(=O)N[C@H]1CC[C@H](CCN2CCN(c3cc(C)c(F)cc3Cl)CC2)CC1 [Example 580, N-(4-{2-[4-(2-Chloro-4-fluoro-5-methylphenyl)piperazin-1-yl]ethyl}cyclohexyl)-4-methoxybutanamide]	171
CSc1cccc(N2CCN(CCC3CCN(CC(C)=O)CC3)CC2)c1 [Example 686, 1-(4-{2-[4-(3-Methylsulfanyl-phenyl)piperazin-1-yl]ethyl}-piperidin-1-yl)propan-2-one]	113
N#CCCCC(=O)N[C@H]1CC[C@H](CCN2CCN(c3cc(F)c(F)cc3F)CC2)CC1 [Example 473, 4-Cyano-N-(4-{2-[4-(2,4,5-trifluorophenyl)piperazin-1-yl]ethyl}cyclohexyl)butanamide]	153
CC(=O)CN1CCC(CCN2CCN(c3ccc(C#N)cc3)CC2)CC1.Cl.Cl	295
CCOCC(=O)N[C@H]1CC[C@H](CCN2CCN(c3cccc(F)c3F)CC2)CC1 [Example 112, N-(4-{2-[4-(2,3-Difluorophenyl)-piperazin-1-yl]ethyl}cyclohexyl)-2-ethoxyacetamide]	140
CC(=O)CCC(=O)N[C@H]1CC[C@H](CCN2CCN(c3cccc(C(F)(F)F)c3F)CC2)CC1 [Example 231, 4-Oxopentanoic acid (4-{2-[4-(2-fluoro-3-trifluoromethyl-phenyl)piperazin-1-yl]ethyl}cyclohexyl)amide]	178
